Laboratory results as given in publication PMC12336229, “Peptide-mimetics derived from leucyl-tRNA synthetase are potential agents for the therapy of mt-tRNA related diseases” (Frontiers in Pharmacology, 2025).

Legend:
[1] = system: control cells (WT and L-8344 cybrids); experiment: Cell viability in galactose medium (Trypan blue dye exclusion); format: cell-based, human; conditions: WT and L-8344 cells; 24 h galactose medium
Procedure: (§1) Previously established osteosarcoma-derived (143B.TK-) cybrid cell lines from patients, which bear either the m.3243A>G mutation in mt-tRNA^Leu(UUR) or the m.8344A>G mutation in mt-tRNA^Lys and controls ([Perli et al., 2014]; [Perli et al., 2016]; [Perli et al., 2020]) were used.
(§2) Cybrid cells were cultured in Dulbecco’s modified Eagle’s medium (DMEM), supplemented with 4.5 g/L D-glucose, 10% foetal bovine serum (FBS), 2 mM L-glutamine, 50 μg/ML uridine, 100 U/mL penicillin, and […] (referred to as glucose medium) in a humidified atmosphere of 95% air and 5% CO2 at 37°C. For cell viability experiments, cells were grown either in glucose medium or in glucose-free DMEM, supplemented with 5 mM galactose, […], and 10% FBS (referred to as galactose medium). The reason for using the latter medium is that a pathological phenotype can be appreciated in cells growing on galactose, which forces cells to rely on mitochondrial respiration, but not in cells growing on glucose.
(§3) To assess growth capability, cells were harvested and seeded at 30 × 10^4 in 60 mm dishes in glucose medium for 24 h with the addition of one of the compounds. Cells were switched in glucose or galactose and, after 24 h, cell viability was measured by the Trypan blue dye exclusion assay. Cells were harvested with 0.25% trypsin and 0.2% EDTA, washed, suspended in PBS in the presence of Trypan blue solution (Sigma–Aldrich) at 1:1 ratio and counted using a hemocytometer. The number of viable cells in the galactose medium was expressed as a percentage of the number of cells in glucose medium.

m.3243A>G mutant cybrids = experiment: as above; format: cell-based, human; conditions: 5 µM; 24 h galactose medium; compared with non-treated mutant cells; at least three independent experiments
Procedure: as §1, §2, §3

[2] = system: m.8344A>G mutant cybrids (H-8344); experiment: as above; format: cell-based, human; conditions: 5 µM; 24 h galactose medium; compared with non-treated mutant cells; at least three independent experiments
Procedure: as §1, §2, §3

[3] = Plasma stability (UPLC-MS); format: in vitro ADME, human; conditions: 37°C
Procedure: To assess whether the β32_33 peptide, PMT, PMT-8a and PMT-8b peptide-mimetics are stable in blood, we set up a chromatographic assay able to evaluate compound concentration after incubation in human plasma.
Four different samples from healthy volunteers were used. Blood was drawn by venepuncture in vacutainer containing EDTA as an anticoagulant. Plasma was separated by centrifugation and immediately used for the experiments. Each compound was dissolved in 500 μL plasma at a final concentration of 0.2 mM and split into two aliquots, one of which was immediately analysed to assess the basal compound level (T0); the other was incubated at 37°C under gentle shaking, and the amount of each compound was measured at different time points (i.e., 1.5, 3, 6 and 72 h).
To perform chromatographic analyses, the samples were treated with 3 volumes of acetonitrile containing 1% formic acid and then extracted by using the Ostro™ pass-through sample preparation system to remove proteins and phospholipids. Samples were dried under vacuum, resuspended in 100 μL of 0.1% formic acid containing 5% acetonitrile, and then injected directly onto the chromatographic column.
Chromatographic analyses were performed on a Water Acquity H-Class UPLC system (Waters, Milford, MA, United States), including a quaternary solvent manager (QSM), a sample manager with a flow-through needle system (FTN), a photodiode array detector (PDA) and a single-quadruple mass detector with electrospray ionization source (ACQUITY QDa). Analyses were performed on a reverse phase C18 column (75 mm × 3.2 mm i. d., 2.5 μm particle size). The mobile phase was solvent A, 0.1% formic acid in water, and solvent B, 0.1% formic acid in acetonitrile. The flow rate was 0.5 mL/min, the column temperature was set at 25°C and the elution was performed by linearly increasing the concentration of solvent B up to 70% in 7 min. Mass spectrometric detection was performed in the positive electrospray ionization mode, using nitrogen as the nebulizer gas. Analyses were performed in the Total Ion Current (TIC) mode with a mass range of 100–1200 m/z. The capillary voltage was 0.8 kV, cone voltage 8 V, ion source temperature 120°C and probe temperature 600°C. Quantification was performed by Selected Ion Recording (SIR): at m/z = 917.88, corresponding to the [M+2H]^2+ ion obtained from either β32_33 peptide or PMT; at m/z = 961.42, corresponding to the [M + H] ^+ obtained from PMT-8a; and at m/z = 869.48, corresponding to the [M + H]^+ ion obtained from PMT-8b.

CC[C@@H](C)[C@@H](NC(=O)[C@@H](CC(C)C)NC(=O)[C@@H](C)NC(=O)[C@H](NC(=O)[C@@H](CCCNC(=N)N)NC(=O)[C@H]1CCCN1C(=O)[C@@H](CO)NC(=O)[C@@H](CC(C)C)NC(=O)[C@@H](Cc1ccccc1)NC(=O)[C@@H](CO)NC(=O)[C@@H](CCCCN)NC(=O)[C@H](N)CCCCN)[C@H](C)O)C(=O)N[C@H](CC(N)=O)C(=O)N[C@H](Cc1ccccc1)C(=O)N[C@H](CC(C)C)C(=O)N[C@@H](C(N)=O)C(C)C [PMT]
Cell viability of control cells [1]: do not affect | Cell viability (viable cells in galactose as % of glucose medium) (m.3243A>G mutant cybrids): significant improvement of cell viability | Cell viability (viable cells in galactose as % of glucose medium) [2]: significant improvement of cell viability | remaining at 72 h, 0.2 mM ([3]; 72 h, human EDTA plasma from four healthy volunteers, gentle shaking, UPLC-MS (SIR), peak area vs time 0, read-out: Amount of detectable compound after incubation with human plasma): ~25% | Plasma stability compared with β32_33 peptide ([3]; all time points (1.5, 3, 6, 72 h), human plasma, 0.2 mM, UPLC-MS): significantly higher plasma stability
